US20250320213A1, “Nitrogen-Containing Heterocyclic Compounds” (Pfizer Inc., priority 2024, published 2025)

How the values were obtained:
[1] = system: CCL17 secretion in peripheral human whole blood; test: Human Whole Blood (HWB) CCL17 TR-FRET Assay (IL-13 stimulated CCL17 secretion); assay type: cell-based; settings: Homo sapiens, 48 h, inhibition of CCL17 secretion in human whole blood, 10 ng/mL IL13, 48 hours
How it was run: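 Heparinized human whole blood was preincubated with compound (11-point, 3-fold series) for 2 h at 37°C, then stimulated with IL-13 (10 ng/mL final) for 48 h. Serum CCL17 was measured by TR-FRET sandwich immunoassay (665/615 nm ratio) after 16 h at room temperature, giving IC50.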

[2] = molecular target: T1, STAT6 (Homo sapiens, UniProt P42226); test: STAT6 Reporter Luciferase Assay (IL-13 stimulated HaCaT keratinocyte NanoLuc reporter cells); assay type: cell-based; settings: STAT6 NanoLuc luciferase reporter, IL-13 stimulated HaCaT keratinocyte cells; read-out: Reporter EC50
T1 construct: stably transfected HaCaT keratinocyte cell line, which expresses NanoLuc luciferase reporter gene under the transcriptional control of the STAT6 responsive promoter; endogenous in cells; host or cells: HaCaT keratinocyte reporter cell line (stably transfected with a NanoLuc reporter)
T1 sequence (P42226 1-847): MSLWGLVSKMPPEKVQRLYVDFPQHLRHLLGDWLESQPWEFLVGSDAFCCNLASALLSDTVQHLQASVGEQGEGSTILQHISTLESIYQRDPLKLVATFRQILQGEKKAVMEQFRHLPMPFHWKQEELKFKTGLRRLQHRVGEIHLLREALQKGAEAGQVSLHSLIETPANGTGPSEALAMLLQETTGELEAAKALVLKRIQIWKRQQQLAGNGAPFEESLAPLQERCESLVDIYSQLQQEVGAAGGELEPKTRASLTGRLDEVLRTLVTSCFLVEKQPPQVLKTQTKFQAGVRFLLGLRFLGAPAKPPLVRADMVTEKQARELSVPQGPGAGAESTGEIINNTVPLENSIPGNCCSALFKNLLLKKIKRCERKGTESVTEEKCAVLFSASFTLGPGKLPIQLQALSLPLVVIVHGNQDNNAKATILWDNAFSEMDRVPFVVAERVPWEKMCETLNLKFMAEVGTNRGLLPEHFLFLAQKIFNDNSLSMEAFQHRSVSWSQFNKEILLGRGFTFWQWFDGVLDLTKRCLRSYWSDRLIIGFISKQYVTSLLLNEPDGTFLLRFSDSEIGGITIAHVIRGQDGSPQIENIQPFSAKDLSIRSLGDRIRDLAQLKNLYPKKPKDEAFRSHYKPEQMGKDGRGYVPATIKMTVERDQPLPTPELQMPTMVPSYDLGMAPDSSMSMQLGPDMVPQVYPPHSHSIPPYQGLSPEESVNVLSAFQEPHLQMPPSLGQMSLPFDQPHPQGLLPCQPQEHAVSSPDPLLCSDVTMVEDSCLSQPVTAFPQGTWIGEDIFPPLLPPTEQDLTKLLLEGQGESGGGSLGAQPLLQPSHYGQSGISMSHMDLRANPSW
How it was run: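 HaCaT IL-13Ra2-promoter NanoLuc reporter; cpd 2 h 37 °C in DMEM/2% HI FBS; IL-13 0.12 nM final, 4 h; Nano-Glo luminescence.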

| IC50 [1] [nM] | EC50 [2] [nM] | SMILES |
| --- | --- | --- |
| 81 | 8 | CN(C)C(=O)Nc1ccc(CNC(=O)c2nn(C)c3c2CN(c2ccc(C(=O)N(C)C)cn2)CC3(F)F)cc1 [Example 70, 5-(5-(dimethylcarbamoyl)pyridin-2-yl)-N-(4-(3,3-dimethylureido)benzyl)-7,7-difluoro-1-methyl-4,5,6,7-tetrahydro-1H-pyrazolo[4,3-c]pyridine-3-carboxamide] |
| 120 | 11 | CCCn1nc(C(=O)NCc2ccc(NC(=O)N(C)C)cc2)c2c1CCN(c1ccc(C(=O)N(C)C)cn1)C2 [Example 74, 5-(5-(dimethylcarbamoyl)pyridin-2-yl)-N-(4-(3,3-dimethylureido)benzyl)-1-propyl-4,5,6,7-tetrahydro-1H-pyrazolo[4,3-c]pyridine-3-carboxamide] |
| 156 | 57 | CN(C)C(=O)Nc1ccc(CNC(=O)c2nn(C3CCOCC3)c3c2CN(c2ccc(C(=O)N(C)C)cn2)CC3)cc1 [Example 76, 5-(5-(dimethylcarbamoyl)pyridin-2-yl)-N-(4-(3,3-dimethylureido)benzyl)-1-(tetrahydro-2H-pyran-4-yl)-4,5,6,7-tetrahydro-1H-pyrazolo[4,3-c]pyridine-3-carboxamide] |
| 56 | 2 | CC(C)n1nc(C(=O)NCc2ccc(NC(=O)N(C)C)cc2)c2c1CCN(c1ccc(N3CC[C@H](F)C3=O)cn1)C2 [Example 84, (S)-N-(4-(3,3-dimethylureido)benzyl)-5-(5-(3-fluoro-2-oxopyrrolidin-1-yl)pyridin-2-yl)-1-isopropyl-4,5,6,7-tetrahydro-1H-pyrazolo[4,3-c]pyridine-3-carboxamide] |
| 149 | 12 | CN(C)C(=O)Nc1ccc(CNC(=O)c2nn(CC3CC3)c3c2CN(c2ccc(C(=O)N(C)C)cn2)CC3)cc1 [Example 89, 1-(cyclopropylmethyl)-5-(5-(dimethylcarbamoyl)pyridin-2-yl)-N-(4-(3,3-dimethylureido)benzyl)-4,5,6,7-tetrahydro-1H-pyrazolo[4,3-c]pyridine-3-carboxamide] |
| 89 | 49 | CN(C)C(=O)Nc1ccc(CNC(=O)c2nn(C3COC3)c3c2CN(c2ccc(C(=O)N(C)C)cn2)CC3)cc1 [Example 94, 5-(5-(dimethylcarbamoyl)pyridin-2-yl)-N-(4-(3,3-dimethylureido)benzyl)-1-(oxetan-3-yl)-4,5,6,7-tetrahydro-1H-pyrazolo[4,3-c]pyridine-3-carboxamide] |
| 66 | 5 | CN(C)C(=O)Nc1ccc(CNC(=O)c2nn(C3CCC3)c3c2CN(c2ccc(C(=O)N(C)C)cn2)CC3)cc1 [Example 96, 1-cyclobutyl-5-(5-(dimethylcarbamoyl)pyridin-2-yl)-N-(4-(3,3-dimethylureido)benzyl)-4,5,6,7-tetrahydro-1H-pyrazolo[4,3-c]pyridine-3-carboxamide] |
| 573 | 48 | CC(C)n1nc(C(=O)NCc2ccc(NC(=O)N(C)C)cc2)c2c1CCN(c1ccc(N3CC[C@@H](F)C3=O)cn1)C2 [Example 98, (R)-N-(4-(3,3-dimethylureido)benzyl)-5-(5-(3-fluoro-2-oxopyrrolidin-1-yl)pyridin-2-yl)-1-isopropyl-4,5,6,7-tetrahydro-1H-pyrazolo[4,3-c]pyridine-3-carboxamide] |
| 453 | 17 | CC1COC(=O)N1c1ccc(N2CCc3c(c(C(=O)NCc4ccc(NC(=O)N(C)C)cc4)nn3C(C)C)C2)nc1 (centres unmarked) [Example 99, N-(4-(3,3-dimethylureido)benzyl)-1-isopropyl-5-(5-(4-methyl-2-oxooxazolidin-3-yl)pyridin-2-yl)-4,5,6,7-tetrahydro-1H-pyrazolo[4,3-c]pyridine-3-carboxamide] |
| 107 | 7 | CN(C)C(=O)Nc1ccc(CNC(=O)c2nn(C34CC(C3)C4)c3c2CN(c2ccc(C(=O)N(C)C)cn2)CC3)cc1 [Example 104, 1-(bicyclo[1.1.1]pentan-1-yl)-5-(5-(dimethylcarbamoyl)pyridin-2-yl)-N-(4-(3,3-dimethylureido)benzyl)-4,5,6,7-tetrahydro-1H-pyrazolo[4,3-c]pyridine-3-carboxamide] |
| 21 | 3 | CN(C)C(=O)Nc1ccc(CNC(=O)c2nn(C)c3c2CN(c2ccc(C(=O)N(C)C)cn2)CC3(C)C)cc1 [Example 105, 5-(5-(dimethylcarbamoyl)pyridin-2-yl)-N-(4-(3,3-dimethylureido)benzyl)-1,7,7-trimethyl-4,5,6,7-tetrahydro-1H-pyrazolo[4,3-c]pyridine-3-carboxamide] |

Second part, the compound before the results:

| SMILES | IC50 [1] [nM] | EC50 [2] [nM] |
| --- | --- | --- |
| CC(C)n1nc(C(=O)NCc2ccc(NC(=O)N(C)C)cc2)c2c1CCN(c1ccc(N3C(=O)CCC34CC4)cn1)C2 [Example 73, N-(4-(3,3-dimethylureido)benzyl)-1-isopropyl-5-(5-(5-oxo-4-azaspiro[2.4]heptan-4-yl)pyridin-2-yl)-4,5,6,7-tetrahydro-1H-pyrazolo[4,3-c]pyridine-3-carboxamide] | 9350 | 121 |
| CC(C)n1nc(C(=O)NCc2ccc(NC(=O)N(C)C)cc2)c2c1CCN(c1ccc(N3C[C@H](CO)CC3=O)cn1)C2 [Example 75, (R)-N-(4-(3,3-dimethylureido)benzyl)-5-(5-(4-(hydroxymethyl)-2-oxopyrrolidin-1-yl)pyridin-2-yl)-1-isopropyl-4,5,6,7-tetrahydro-1H-pyrazolo[4,3-c]pyridine-3-carboxamide] | 4560 | 2830 |
| CC[C@H]1CCC(=O)N1c1ccc(N2CCc3c(c(C(=O)NCc4ccc(NC(=O)N(C)C)cc4)nn3C(C)C)C2)nc1 [Example 79, (S)-N-(4-(3,3-dimethylureido)benzyl)-5-(5-(2-ethyl-5-oxopyrrolidin-1-yl)pyridin-2-yl)-1-isopropyl-4,5,6,7-tetrahydro-1H-pyrazolo[4,3-c]pyridine-3-carboxamide] | 1780 | 41 |
| CC(C)n1nc(C(=O)NCc2ccc(NC(=O)N(C)C)cc2)c2c1CCN(c1ccc(N3C(=O)CC[C@@H]3CO)cn1)C2 [Example 88, (R)-N-(4-(3,3-dimethylureido)benzyl)-5-(5-(2-(hydroxymethyl)-5-oxopyrrolidin-1-yl)pyridin-2-yl)-1-isopropyl-4,5,6,7-tetrahydro-1H-pyrazolo[4,3-c]pyridine-3-carboxamide] | 2080 | 424 |
| CC(C)n1nc(C(=O)NCc2ccc(NC(=O)N(C)C)cc2)c2c1CCN(c1ccc(N3CC4CC4C3=O)cn1)C2 (centres unmarked) [Example 91, N-(4-(3,3-dimethylureido)benzyl)-1-isopropyl-5-(5-(2-oxo-3-azabicyclo[3.1.0]hexan-3-yl)pyridin-2-yl)-4,5,6,7-tetrahydro-1H-pyrazolo[4,3-c]pyridine-3-carboxamide] | 327 | 14 |
| CC(C)n1nc(C(=O)NCc2ccc(NC(=O)N(C)C)cc2)c2c1CCN(c1ccc(N3CC4(CC4)CC3=O)cn1)C2 [Example 97, N-(4-(3,3-dimethylureido)benzyl)-1-isopropyl-5-(5-(6-oxo-5-azaspiro[2.4]heptan-5-yl)pyridin-2-yl)-4,5,6,7-tetrahydro-1H-pyrazolo[4,3-c]pyridine-3-carboxamide] | 3480 | 65 |
| CC(C)n1nc(C(=O)NCc2ccc(NC(=O)N(C)C)cc2)c2c1CCN(c1ccc(N3CCOCCC3=O)cn1)C2 [Example 100, N-(4-(3,3-dimethylureido)benzyl)-1-isopropyl-5-(5-(5-oxo-1,4-oxazepan-4-yl)pyridin-2-yl)-4,5,6,7-tetrahydro-1H-pyrazolo[4,3-c]pyridine-3-carboxamide] | 1800 | 174 |
| CC(C)n1nc(C(=O)NCc2ccc(NC(=O)N(C)C)cc2)c2c1CCN(c1ccc(N3CCOCC3=O)cn1)C2 [Example 103, N-(4-(3,3-dimethylureido)benzyl)-1-isopropyl-5-(5-(3-oxomorpholino)pyridin-2-yl)-4,5,6,7-tetrahydro-1H-pyrazolo[4,3-c]pyridine-3-carboxamide] | 535 | 47 |
